Consider 15 molecules from patent publication US8252826B2, “Cyclopentyl- and cycloheptylpyrazoles” (Hoffmann-La Roche Inc., priority 2010, dated 2012).

Structures are written as SMILES.

For this test, the target named is T1, FXR ligand binding domain (Homo sapiens, UniProt Q96RI1).
T1 sequence (Q96RI1 211-483 limits assumed): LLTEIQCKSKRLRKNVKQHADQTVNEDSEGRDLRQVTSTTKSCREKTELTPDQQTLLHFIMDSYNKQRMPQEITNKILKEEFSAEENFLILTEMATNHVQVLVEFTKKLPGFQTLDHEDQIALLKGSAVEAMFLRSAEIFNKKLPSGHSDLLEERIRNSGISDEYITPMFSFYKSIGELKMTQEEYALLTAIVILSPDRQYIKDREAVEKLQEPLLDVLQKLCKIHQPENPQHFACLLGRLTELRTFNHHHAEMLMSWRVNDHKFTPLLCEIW
Briefly: Radioligand binding assay (scintillation proximity radioligand displacement).
Method: Radioligand Binding Assay
Binding of test substances to the FXR ligand binding domain was assessed in a radioligand displacement assay. The assay was performed in a buffer consisting of 50 mM Hepes, pH 7.4, 10 mM NaCl, 5 mM MgCl2. […] All binding assays were performed in 96-well plates and the amount of bound ligand was measured on a Packard TopCount using OptiPlates (Packard). Dose response curves were performed within a range of concentration from 6×10^−9 M to 2.5×10^−5 M.
As for `COC(=O)c1cc(C)c(OCC(c2c3c(nn2-c2ccc(Cl)cc2)CCC3)C2CCCCC2)c(C)c1` (stereo not drawn) [Example 1, 4-{2-[2-(4-Chloro-phenyl)-2,4,5,6-tetrahydro-cyclopentapyrazol-3-yl]-2-cyclohexyl-ethoxy}-3,5-dimethyl-benzoic acid methyl ester], the IC50 (commonly the concentration needed to halve the response being measured) stood at 28.7 µM. On to `N#Cc1ccc(OCC(c2c3c(nn2-c2ccc(Cl)cc2)CCC3)C2CCCCC2)c(F)c1` (stereo not drawn) [Example 3, 4-{2-[2-(4-Chloro-phenyl)-2,4,5,6-tetrahydro-cyclopentapyrazol-3-yl]-2-cyclohexyl-ethoxy}-3-fluoro-benzonitrile], for which the IC50 was determined as 1.3 µM. The molecule `O=C(NC1CCCCC1)C(c1c2c(nn1-c1ccc(Cl)cc1)CCC2)C1CCCCC1` (stereo not drawn) [Example 4, 2-[2-(4-Chloro-phenyl)-2,4,5,6-tetrahydro-cyclopentapyrazol-3-yl]-2,N-dicyclohexyl-acetamide] displayed an IC50 of 3.3 µM. In the case of `Fc1cc(-c2nnn[nH]2)ccc1OCC(c1c2c(nn1-c1ccc(Cl)cc1)CCC2)C1CCCCC1` (stereo not drawn) [Example 5, 2-(4-Chloro-phenyl)-3-{1-cyclohexyl-2-[2-fluoro-4-(2H-tetrazol-5-yl)-phenoxy]-ethyl}-2,4,5,6-tetrahydro-cyclopentapyrazole] it was 0.092 µM.

Molecule `O=C(O)c1ccc(NC(=O)C(c2c3c(nn2-c2ccc(Cl)cc2)CCC3)C2CCCCC2)c(F)c1` (stereo not drawn) [Example 6, 4-{2-[2-(4-Chloro-phenyl)-2,4,5,6-tetrahydro-cyclopentapyrazol-3-yl]-2-cyclohexyl-acetylamino}-3-fluoro-benzoic acid] returned an IC50 of 0.603 µM. In the case of `O=C(O)c1ccc(OCC(c2c3c(nn2-c2ccc(Cl)cc2)CCC3)C2CCCCC2)nc1` (stereo not drawn) [Example 7, 6-{2-[2-(4-Chloro-phenyl)-2,4,5,6-tetrahydro-cyclopentapyrazol-3-yl]-2-cyclohexyl-ethoxy}-nicotinic acid] it was 0.052 µM; in that of `O=C(O)c1ccc(SCC(c2c3c(nn2-c2ccc(Cl)cc2)CCC3)C2CCCCC2)cc1` (stereo not drawn) [Example 8, 4-{2-[2-(4-Chloro-phenyl)-2,4,5,6-tetrahydro-cyclopentapyrazol-3-yl]-2-cyclohexyl-ethylsulfanyl}-benzoic acid], 1.1 µM. Molecule `CCOC(=O)C(C)(C)Oc1ccc(NC(=O)C(c2c3c(nn2-c2ccc(Cl)cc2)CCCCC3)C2CCCCC2)c(F)c1` (stereo not drawn) [Example 9, 2-(4-{2-[2-(4-Chloro-phenyl)-2,4,5,6,7,8-hexahydro-cycloheptapyrazol-3-yl]-2-cyclohexyl-acetylamino}-3-fluoro-phenoxy)-2-methyl-propionic acid ethyl ester] displayed an IC50 of 21.4 µM. Take `CC(C)(Oc1ccc(NC(=O)C(c2c3c(nn2-c2ccc(Cl)cc2)CCCCC3)C2CCCCC2)c(F)c1)C(=O)O` (stereo not drawn) [Example 10, 2-(4-{2-[2-(4-Chloro-phenyl)-2,4,5,6,7,8-hexahydro-cycloheptapyrazol-3-yl]-2-cyclohexyl-acetylamino}-3-fluoro-phenoxy)-2-methyl-propionic acid]: the IC50 came out at 1.3 µM. The molecule `O=C(NC1CCCCC1)C(c1c2c(nn1-c1ccc(Cl)cc1)CCCCC2)C1CCCCC1` (stereo not drawn) [Example 11, 2-[2-(4-Chloro-phenyl)-2,4,5,6,7,8-hexahydro-cycloheptapyrazol-3-yl]-2,N-dicyclohexyl-acetamide] displayed an IC50 of 2.4 µM. In the case of `COC(=O)c1ccc(NC(=O)C(c2c3c(nn2-c2ccc(Cl)cc2)CCCCC3)C2CCCCC2)c(F)c1` (stereo not drawn) [Example 12, 4-{2-[2-(4-Chloro-phenyl)-2,4,5,6,7,8-hexahydro-cycloheptapyrazol-3-yl]-2-cyclohexyl-acetylamino}-3-fluoro-benzoic acid methyl ester] it was 7 µM; in that of `O=C(O)c1ccc(NC(=O)C(c2c3c(nn2-c2ccc(Cl)cc2)CCCCC3)C2CCCCC2)c(F)c1` (stereo not drawn) [Example 13, 4-{2-[2-(4-Chloro-phenyl)-2,4,5,6,7,8-hexahydro-cycloheptapyrazol-3-yl]-2-cyclohexyl-acetylamino}-3-fluoro-benzoic acid], 1.7 µM; in that of `N#Cc1ccc(OCC(c2c3c(nn2-c2ccc(Cl)cc2)CCCCC3)C2CCCCC2)c(F)c1` (stereo not drawn) [Example 14, 4-{2-[2-(4-Chloro-phenyl)-2,4,5,6,7,8-hexahydro-cycloheptapyrazol-3-yl]-2-cyclohexyl-ethoxy}-3-fluoro-benzonitrile], 21.3 µM.

The molecule `Cc1cc(C(=O)O)cc(C)c1OCC(c1c2c(nn1-c1ccc(Cl)cc1)CCCCC2)C1CCCCC1` (stereo not drawn) [Example 15, 4-{2-[2-(4-Chloro-phenyl)-2,4,5,6,7,8-hexahydro-cycloheptapyrazol-3-yl]-2-cyclohexyl-ethoxy}-3,5-dimethyl-benzoic acid] yielded an IC50 of 0.53 µM. Consider `Fc1cc(-c2nnn[nH]2)ccc1OCC(c1c2c(nn1-c1ccc(Cl)cc1)CCCCC2)C1CCCCC1` (stereo not drawn) [Example 16, 2-(4-Chloro-phenyl)-3-{1-cyclohexyl-2-[2-fluoro-4-(1H-tetrazol-5-yl)-phenoxy]-ethyl}-2,4,5,6,7,8-hexahydro-cycloheptapyrazole], for which the IC50 came out at 0.155 µM.
